Experiment [1] has as its target T1, Peroxisome proliferator-activated receptor gamma (Homo sapiens, UniProt P37231).
T1 sequence (P37231 whole entry): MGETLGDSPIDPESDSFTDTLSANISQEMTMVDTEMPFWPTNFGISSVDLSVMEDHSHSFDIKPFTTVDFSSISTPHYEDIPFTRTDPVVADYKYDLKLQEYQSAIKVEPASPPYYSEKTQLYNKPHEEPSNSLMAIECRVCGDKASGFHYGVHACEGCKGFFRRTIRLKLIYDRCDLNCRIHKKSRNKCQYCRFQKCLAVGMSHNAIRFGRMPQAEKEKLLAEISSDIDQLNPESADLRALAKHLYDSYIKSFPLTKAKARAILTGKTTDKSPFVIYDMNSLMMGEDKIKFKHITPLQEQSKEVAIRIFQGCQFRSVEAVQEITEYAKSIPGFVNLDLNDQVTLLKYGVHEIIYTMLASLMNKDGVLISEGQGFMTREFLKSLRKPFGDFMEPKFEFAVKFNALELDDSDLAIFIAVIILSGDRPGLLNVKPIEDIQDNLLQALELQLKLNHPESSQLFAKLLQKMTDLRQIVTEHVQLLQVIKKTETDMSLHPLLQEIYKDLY
Nature of the experiment: In vitro binding affinity towards human peroxisome proliferator activated receptor gamma (PPAR gamma).

Experiment [2] concerns the target T1, Peroxisome proliferator-activated receptor gamma. Nature of the experiment: Agonistic activity was determined in COS1 cells transfected with GAL 4-PPAR gamma receptor. It counts as functional, cell-based, COS-1.
The target of experiment [3] is T2, Peroxisome proliferator-activated receptor delta (Homo sapiens, UniProt Q03181).
T2 sequence (Q03181 whole entry): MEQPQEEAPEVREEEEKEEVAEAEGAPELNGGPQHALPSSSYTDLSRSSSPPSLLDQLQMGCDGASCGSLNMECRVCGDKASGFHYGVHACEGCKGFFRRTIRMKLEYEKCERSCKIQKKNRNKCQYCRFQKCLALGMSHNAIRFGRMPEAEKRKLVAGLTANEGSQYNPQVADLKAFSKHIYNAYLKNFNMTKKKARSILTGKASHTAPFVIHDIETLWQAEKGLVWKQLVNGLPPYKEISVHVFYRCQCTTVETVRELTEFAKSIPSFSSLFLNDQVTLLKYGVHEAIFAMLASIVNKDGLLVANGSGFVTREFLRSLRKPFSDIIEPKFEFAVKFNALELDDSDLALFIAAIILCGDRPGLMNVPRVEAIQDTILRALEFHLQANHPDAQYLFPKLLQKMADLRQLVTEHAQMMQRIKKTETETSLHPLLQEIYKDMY
Nature of the experiment: Agonistic activity was determined in COS1 cells transfected with GAL 4-PPAR delta receptor. Format: functional, cell-based, COS-1.

The target in experiment [4] is T3, Peroxisome proliferator-activated receptor alpha (Homo sapiens, UniProt Q07869).
T3 sequence (Q07869 whole entry): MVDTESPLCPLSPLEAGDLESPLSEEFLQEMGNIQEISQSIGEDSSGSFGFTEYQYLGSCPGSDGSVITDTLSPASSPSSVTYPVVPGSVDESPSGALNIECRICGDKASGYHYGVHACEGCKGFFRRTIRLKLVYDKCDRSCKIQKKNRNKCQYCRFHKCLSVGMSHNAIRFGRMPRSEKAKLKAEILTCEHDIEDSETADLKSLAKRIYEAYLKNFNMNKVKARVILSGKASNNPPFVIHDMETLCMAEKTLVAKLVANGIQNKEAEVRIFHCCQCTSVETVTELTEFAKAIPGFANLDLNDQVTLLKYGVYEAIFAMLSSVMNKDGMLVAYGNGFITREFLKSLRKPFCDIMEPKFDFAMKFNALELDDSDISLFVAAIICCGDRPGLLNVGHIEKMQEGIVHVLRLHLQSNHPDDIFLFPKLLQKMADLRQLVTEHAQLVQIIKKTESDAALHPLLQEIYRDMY
As to the kind of experiment: Agonistic activity was determined in COS1 cells transfected with GAL 4-PPAR alpha receptor. It counts as functional, cell-based, COS-1.

Experiment [5] deals with T3, Peroxisome proliferator-activated receptor alpha. Nature of the experiment: In vitro binding affinity towards human peroxisome proliferator activated receptor alpha (PPAR alpha).
Experiment [6] concerns the target T2, Peroxisome proliferator-activated receptor delta.
Description: In vitro binding affinity towards human peroxisome proliferator activated receptor delta (PPAR delta)
In experiment [7] the target is T4, Peroxisome proliferator-activated receptor alpha (Homo sapiens) (UniProt Q07869).
T4 sequence (whole entry): T3 sequence (Q07869 whole entry)
As to the kind of experiment: Agonistic transcriptional activity in COS1 cells expressing GAL 4-PPAR alpha at 3 uM; Maximal percent. Format: functional, cell-based. To be noted: COS-1.

Experiment [8] addresses T5, Peroxisome proliferator-activated receptor gamma (Homo sapiens) (UniProt P37231).
T5 sequence (whole entry): T1 sequence (P37231 whole entry)
As to the kind of experiment: Agonistic transcriptional activity in COS1 cells expressing GAL 4-PPAR gamma at 3 uM; Maximal percent. Format: functional, cell-based. To be noted: COS-1.

The Ki is the dissociation constant of the complex between target and ligand, obtained from inhibition or displacement. The low end stands for tighter binding, the high end for weaker binding. As usually defined, the EC50 is the concentration that produces a half-maximal response. Read a high EC50 as weaker potency. Consider `CCCc1c(OCCCCOc2cccc(C(C)(C)C(=O)O)c2)ccc2c(-c3ccccc3)noc12`, for which the Ki was 26 nM in experiment [1], 46 nM in experiment [5] and 165 nM in experiment [6]. Moreover, the results for the EC50 in experiment [2], in experiment [3] and in experiment [4] were 52 nM, 400 nM and 50 nM, respectively.

Turning to `CCCc1c(OCCCCOc2cccc(OC(C)(C)C(=O)O)c2)ccc2c(-c3ccccc3)noc12`, the figures for the Ki in experiment [1], in experiment [5] and in experiment [6] were 41 nM, 255 nM and 110 nM, respectively. Further, the concentration for a half-maximal effect (EC50) was 100 nM in experiment [2] and 92 nM in experiment [4].

As to `CCCc1c(OCCCCOc2ccc(C(C)(C)CC(=O)O)cc2)ccc2c(-c3ccccc3)noc12`, the Ki stood at 52 nM in experiment [1], 213 nM in experiment [5] and 529 nM in experiment [6]. For the same compound, the results for the half-maximal effective concentration (EC50) in experiment [2] and in experiment [4] were 37 nM and 53 nM, respectively.

With `CCCc1c(OCCOc2ccc(CCC(=O)O)cc2)ccc2c(-c3ccccc3)noc12`, the Ki in experiment [1] was found to be 304 nM; in experiment [6], 11 nM.

Take `CCCc1c(OCCCOc2cccc(CC(=O)O)c2)ccc2c(-c3ccccc3)noc12`: the inhibition constant (Ki) turned out to be 662 nM in experiment [1], 76 nM in experiment [5] and 26 nM in experiment [6].

Turning to `CCCc1c(OCCCSc2ccc(CC(=O)O)cc2Cl)ccc2c(-c3ccccc3)noc12`, the Ki came to 11 nM in experiment [1], 14 nM in experiment [5] and 3.7 nM in experiment [6]. Moreover, the values for the half-maximal effective concentration (EC50) in experiment [2], in experiment [3] and in experiment [4] were 4 nM, 3 nM and 3 nM, respectively.

Turning to `CCCc1c(OCCCCOc2ccc(/C=C/C(=O)O)cc2)ccc2c(-c3ccccc3)noc12`, the inhibitory constant (Ki) in experiment [1] turned out to be 13 nM; in experiment [5] it was 18 nM; in experiment [6] it was 265 nM. Besides, the EC50 was found to be 29 nM in experiment [2], 640 nM in experiment [3] and 13 nM in experiment [4].

As to `CCCc1c(OCCCOc2ccc(CC(=O)O)cc2)ccc2c(-c3ccccc3)noc12`, the concentration for a half-maximal effect (EC50) is 194 nM in experiment [2], 147 nM in experiment [3] and 3 nM in experiment [4]. The Ki in experiment [5] worked out at 3 nM; in experiment [6], 5 nM.

Consider `CN(CCOc1ccc(CC2SC(=O)NC2=O)cc1)c1ccccn1` (stereo unspecified), for which the activation in experiment [7] was determined as 3%.

As for `CCCc1c(OCCCOc2ccccc2CCC(=O)O)ccc2c(-c3ccccc3)noc12`, the Ki in experiment [1] is 1330 nM; in experiment [5] it was over 33300 nM; in experiment [6], 3520 nM.

For the compound `CCCc1c(OCCCCOc2ccc(OC(C)(C)C(=O)O)cc2)ccc2c(-c3ccccc3)noc12`, the Ki in experiment [1] was 2.4 nM; in experiment [6], 23 nM. The concentration for a half-maximal effect (EC50) in experiment [2] amounted to 2 nM; in experiment [3], 172 nM.

In the case of `CCCc1c(OCCCOc2ccc(/C=C/C(=O)O)cc2)ccc2c(-c3ccccc3)noc12`, the inhibition constant (Ki) in experiment [1] is 152 nM; in experiment [5] it was 50 nM; in experiment [6], 18 nM. Also, the EC50 was 254 nM in experiment [2] and 148 nM in experiment [3]. For the same compound, the activation in experiment [7] came out at 56%.

Regarding `CCCc1c(OCCCCOc2ccc(CC(C)(C)C(=O)O)cc2)ccc2c(-c3ccccc3)noc12`, the values for the Ki in experiment [1], in experiment [5] and in experiment [6] were 20 nM, 13 nM and 317 nM, respectively. In addition, the results for the half-maximal effective concentration (EC50) in experiment [2], in experiment [3] and in experiment [4] were 20 nM, 860 nM and 4 nM, respectively.

As for `CCCc1c(OCCCCOc2ccc(C(C)(C)C(=O)O)cc2)ccc2c(-c3ccccc3)noc12`, the Ki in experiment [1] is 17 nM; in experiment [5] it was 23 nM; in experiment [6] it was 203 nM. For the same compound, the values for the EC50 in experiment [2] and in experiment [4] were 10 nM and 2 nM, respectively.

Regarding `CCCc1c(OCCCOc2ccc(OCC(=O)O)cc2)ccc2c(-c3ccccc3)noc12`, the inhibitory constant (Ki) in experiment [1] is 34 nM; in experiment [5], 8.1 nM; in experiment [6], 3.7 nM. Further, the values for the concentration giving a half-maximal response (EC50) in experiment [2], in experiment [3] and in experiment [4] were 75 nM, 16 nM and 4 nM, respectively.

As for `CCCc1c(OCCCOc2cccc(CCC(=O)O)c2)ccc2c(-c3ccccc3)noc12`, the results for the inhibition constant (Ki) in experiment [1], in experiment [5] and in experiment [6] were 448 nM, 53 nM and 21 nM, respectively.

As to `CCCc1c(OCCCCOc2ccc(OC(C)C(=O)O)cc2)ccc2c(-c3ccccc3)noc12` (stereo unspecified), the inhibitory constant (Ki) was determined as 20 nM in experiment [1], 47 nM in experiment [5] and 136 nM in experiment [6]. The concentration giving a half-maximal response (EC50) stood at 16 nM in experiment [2] and 2 nM in experiment [4].

Take `CCCc1c(OCCCCOc2ccc(CC(=O)O)cc2)ccc2c(-c3ccccc3)noc12`: the inhibition constant (Ki) in experiment [1] stood at 30 nM; in experiment [5], 7 nM; in experiment [6] it was 93 nM. The concentration giving a half-maximal response (EC50) is 60 nM in experiment [2] and 8 nM in experiment [4].

On to `CCCc1c(OCCOc2ccc(CCCC(=O)O)cc2)ccc2c(-c3ccccc3)noc12`, for which the results for the inhibitory constant (Ki) in experiment [1], in experiment [5] and in experiment [6] were 616 nM, 305 nM and 156 nM, respectively. Moreover, in experiment [8], the Emax (% of standard agonist) was determined as 72%. Further, the EC50 in experiment [4] was 33 nM.

Consider `CCCc1c(OCCCCOc2cccc(CCC(=O)O)c2)ccc2c(-c3ccccc3)noc12`, for which the Ki turned out to be 115 nM in experiment [1], 329 nM in experiment [5] and 52 nM in experiment [6].

On to `CCCc1c(OCCCCOc2ccc(C(=O)O)cc2)ccc2c(-c3ccccc3)noc12`, for which the figures for the Ki in experiment [1], in experiment [5] and in experiment [6] were over 5300 nM, 920 nM and over 14000 nM, respectively.

For `CCCc1c(OCCCCOc2cccc(C(=O)O)c2)ccc2c(-c3ccccc3)noc12`, the Ki in experiment [1] turned out to be 100 nM; in experiment [5], 5.2 nM; in experiment [6], 508 nM. Moreover, the values for the EC50 in experiment [2] and in experiment [4] were 193 nM and 8 nM, respectively.

`CCCc1c(OCCCCOc2cccc(OCC(=O)O)c2)ccc2c(-c3ccccc3)noc12`: the Ki in experiment [1] was 52 nM; in experiment [5] it was 133 nM; in experiment [6], 47 nM. In addition, the 50% effective concentration (EC50) stood at 87 nM in experiment [2] and 248 nM in experiment [4].

In the case of `CCCc1c(OCCCOc2ccc(CCCC(=O)O)cc2)ccc2c(-c3ccccc3)noc12`, the Ki in experiment [1] stood at 145 nM; in experiment [5], 121 nM; in experiment [6], 38 nM. The EC50 was 156 nM in experiment [2], 183 nM in experiment [3] and 3 nM in experiment [4].

With `CCCc1c(OCCCCOc2ccc(CCC(=O)O)cc2)ccc2c(-c3ccccc3)noc12`, the Ki worked out at 8.9 nM in experiment [1], 7.6 nM in experiment [5] and 37.5 nM in experiment [6]. In addition, the results for the 50% effective concentration (EC50) in experiment [2] and in experiment [4] were 485 nM and 429 nM, respectively.

As for `CCCc1c(OCCCCOc2ccccc2CC(=O)O)ccc2c(-c3ccccc3)noc12`, the values for the inhibitory constant (Ki) in experiment [1], in experiment [5] and in experiment [6] were 348 nM, 86 nM and 47 nM, respectively.

As to `CCCc1c(OCCCOc2ccc(OC(C)C(=O)O)cc2)ccc2c(-c3ccccc3)noc12` (stereo unspecified), the figures for the inhibition constant (Ki) in experiment [1], in experiment [5] and in experiment [6] were 22 nM, 9.3 nM and 4.6 nM, respectively. The figures for the EC50 in experiment [2], in experiment [3] and in experiment [4] were 27 nM, 13 nM and 2 nM, respectively.

For `CCCc1c(OCCCOc2ccc(CCC(=O)O)cc2)ccc2c(-c3ccccc3)noc12`, the figures for the Ki in experiment [1], in experiment [5] and in experiment [6] were 32 nM, 7.3 nM and 2 nM, respectively. The compound further came in with an Emax (% of standard agonist) in experiment [8] of 99%. The activation in experiment [7] was 42%.

On to `CCCc1c(OCCCOc2ccccc2CC(=O)O)ccc2c(-c3ccccc3)noc12`, for which the Ki amounted to 498 nM in experiment [1], 489 nM in experiment [5] and 62 nM in experiment [6].

Values taken from ChEMBL document CHEMBL1136629, “Amphipathic 3-phenyl-7-propylbenzisoxazoles; human pPaR gamma, delta and alpha agonists” (Bioorg Med Chem Lett, 2003).
